The source of these data is patent US8691945B2, “Antimicrobial peptides” (Singapore Health Services Pte Ltd., priority 2006, dated 2014).

Where no end group is shown, it is not given here. The star is where a group is joined. Acm = CC(=O)NC*

The subject of series [1] is E. coli, B. cereus, S. aureus and P. aeruginosa. Put plainly: Antimicrobial assay, statements pooled over the four pathogens. It counts as cell-based. To be noted: in comparison with hBD3. The procedure:
(§1) The bacteria assayed included Escherichia coli ATCC 25922, Staphylococcus aureus ATCC 25923, Pseudomonas aeruginosa ATCC 27853, Bacillus cereus NCTC 2599. Sterile flat-bottom, 96-well tissue culture plates (92096, TPP) was used for assay. The inner surface of microplate cover was treated with 0.05% Triton X-100 in 20% ethanol to prevent condensation of water droplets. Growth kinetics in 96-well microplates was monitored (as turbidity) with the Tecan Genios Plus microplate reader using software Magellan v5.03 and 620-nm filter. Seed culture was monitored on Pharmacia Biotech Ultrospec 2000 UV/Visible spectrophotometer using 600-nm wavelength. Antibacterial activities of the analogs and wild-type hBD3 were determined for E. coli, B. cereus, S. aureus and P. aeruginosa by measuring bacteria growth in liquid broth in the presence of the serially diluted peptides. The LD50 is the concentration of peptide at which 50% of the viable cells are killed.
The bacteria were grown to mid-logarithmic phase in Mueller-Hinton Broth (MHB) from overnight plate culture. […]
LD50, LD90, LD99 and LD99.9 of wild-type hBD3 and its linear analogs were determined against two Gram-negative (E. Coli and P. aeruginosa) and two Gram-positive (B. cereus, S. aureus) (Table 3). […]

The subject of series [2] is Bacillus cereus NCTC 2599. The series can be described thus: Antimicrobial assay, bacteria growth in liquid broth with serially diluted peptides. To be noted: B cereus, NCTC2599; for vLD50: concentration of peptide at which 50% of the viable cells are killed. It counts as cell-based. On the procedure: as §1
(§2) The bacteria were grown to mid-logarithmic phase in Mueller-Hinton Broth (MHB) from overnight plate culture. The cell suspension was diluted to OD 0.1 (600 nm, Pharmacia Biotech Ultropec 2000 UV/Visible spectrophotometer) in mixture of 10 mM Pot Phos buffer/MHB (equal volume (PMH). This cell suspension gave a concentration of 10^7 CFU/ml. Colony count was done for confirmation. A 10-fold dilution series of this suspension ranging from 10^7 to 10^1 CFU/ml was made in PMH (in sextuplicate for Staphylococcus aureus ATCC 25923 and Bacillus cereus NCTC 2599; in quadruplicate for Escherichia coli ATCC 25922 and in triplicate for Pseudomonas aeruginosa ATCC 27853). The final volume per well was 200 ul. For negative control well, 200 ul of uninoculated PMH was added.
(§3) LD50, LD90, LD99 and LD99.9 of wild-type hBD3 and its linear analogs were determined against two Gram-negative (E. Coli and P. aeruginosa) and two Gram-positive (B. cereus, S. aureus) (Table 3). See also FIGS. 7(A, B, C and D).

Series [3] relates to Staphylococcus aureus ATCC 25923. Described as above. It counts as cell-based. To be noted: Staph aureus, ATCC25923; for vLD50: concentration of peptide at which 50% of the viable cells are killed. On the procedure: as §1, §2, §3
Series [4] has as its system Escherichia coli ATCC 25922. The series is described as above. It counts as cell-based. The note with it: E coli, ATCC25922; for vLD50: concentration of peptide at which 50% of the viable cells are killed. On the procedure: as §1, §2, §3
The subject of series [5] is Pseudomonas aeruginosa ATCC 27853. The description is as above. To be noted: P aeruginosa, ATCC27853; for vLD50: concentration of peptide at which 50% of the viable cells are killed. It counts as cell-based. On the procedure:
as §1, §2, §3

Series [6] can be described thus: Molecular hydrophobicity by HPLC-MS retention time, full-length analogs. It counts as physicochemical. Further details: unit: min. The note with it: average of three tries, one value per charged fragment. The procedure: Molecular hydrophobicity of peptides was measured by HPLC-MS at the same experimental conditions, e.g., the same peptide concentration (500 or 100 μg/ml), loading (5 μl) and flow rate of 0.2 ml/min in the same gradient 18-38% of eluant A in 32 min and relatively compared in term of retention time (Rt) of product peak.
In comparison with native hBD3, this series of linear analogs of hBD3 with full-length and 11 net positive charge are structurally homogenous as they are designed and synthesized only by uniform replacement of six bridging cysteine residues in hBD3 with other six residues with different hydrophobicity, e.g., A, S, C(Acm), F, Y and W. These linear analogs provide a well-defined model for testing the effect of overall hydrophobicity, second structure and linearity/or constraint imposed by three disulfide bridges on antibacterial, cytotoxicity and hemolytic activities. We have measured the relative molecular hydrophobicity by HPLC-MS in term of retention time (tR) at 500 ug/ml and 100 ug/ml (Table 2) and overall hydrophobicity were calculated based on the hydrophobicity scale of Wilmley and White and Hopp-Woods Scale, respectively. The change trend of overall hydrophobicity, which is calculated based on two different scale, generally fits well, and the HPLC result matches the calculations very well. The general order for the relative molecular hydrophobicity of peptides is as following: W6>F6>Y6>native hBD3>A6>S6>C(Acm)6. […] In the following sections, we will discuss the effect of overall hydrophobicity of peptide on biological activities.

Series [7] can be described thus: Molecular hydrophobicity by RP-HPLC-MS retention time, C-terminus analogs. It counts as physicochemical. To be noted: 1 mg/ml; gradient 2-15.5% in 30 mins then 15.5-31% in 3 mins of eluent B (ACN). The procedure:
The overall molecular hydrophobicity of the C-terminus hBD3 analogs were measured by RP-HPLC-MS in terms of retention time at 1 mg/ml (Table 4 and FIG. 14). RP-HPLC is an approach that is commonly employed for such comparisons of peptides or amino acid side chains among antibacterial peptides. Since the stationary phase of C18-modified silica is hydrophobic and the mobile phase (water-acetonitrile) is hydrophilic, longer retention times should be correlated with higher hydrophobicity. The measured order for the molecular hydrophobicity of the peptides is as follows: W2>F2>L2>I2>Y2>V2>C2>H2.

“GIINTLQKYYC(Acm)RVRGGRC(Acm)AVLSC(Acm)LPKEEQIGKC(Acm)STRGRKC(Acm)C(Acm)RRKK-OH [C(Acm)6, GIINTLQKYY C(Acm)6RVRGGR C(Acm)6AVLS C(Acm)6LPKEEQIGK C(Acm)6STRGRK C(Acm)6C(Acm)6RRKK]”: the “antibacterial potency in words” value in series [1] is “relatively less potency”. In addition, the vLD90 in series [2] came to 28.3 µg/mL; in series [3] it was 46.8 µg/mL; in series [4], 23.8 µg/mL; in series [5], 21.7 µg/mL. Also, the vLD99 in series [2] came to 47.8 µg/mL; in series [3], 91 µg/mL; in series [4] it was 24.9 µg/mL; in series [5], 24.7 µg/mL. Moreover, the vLD99.9 in series [2] is 49.8 µg/mL; in series [3], above 100 µg/mL; in series [4], 42 µg/mL; in series [5] it was 25 µg/mL. Also, the vLD50 was determined as 19.6 µg/mL in series [2], 25 µg/mL in series [3], 18.7 µg/mL in series [4] and 11.2 µg/mL in series [5]. The “Relative hydrophobicity in term of retention time (Rt) in HPLC-MS, Average” value in series [6] (100 ug/ml) is 20.94; in series [6] (500 ug/ml, fragment m/z 799.3), 20.12; in series [6] (500 ug/ml, fragment m/z 932.4) it was 20.15; in series [6] (500 ug/ml, fragment m/z 1118.8), 20.11.

With “GIINTLQKYYCRVRGGRCAVLSCLPKEEQIGKCSTRGRKCCRRKK (disulfide (positions not given here); also: three disulfide bonds, pairing not given here; listed as Homo sapiens) [whbd3, wild type human β-defensin 3 with three disulfide bonds, used as control, reference compound]”, the vLD90 came to 5.8 µg/mL in series [2], 10.7 µg/mL in series [3], 11.8 µg/mL in series [4] and 5.7 µg/mL in series [5]. Moreover, the vLD99 was 6.2 µg/mL in series [2], 12.2 µg/mL in series [3], 12.4 µg/mL in series [4] and 11.4 µg/mL in series [5]. Moreover, the vLD99.9 in series [2] amounted to 6.2 µg/mL; in series [3], 12.5 µg/mL; in series [4] it was 12.5 µg/mL; in series [5], 12.4 µg/mL. Also, the vLD50 in series [2] is 3.9 µg/mL; in series [3], 5.5 µg/mL; in series [4], 9.3 µg/mL; in series [5], 2.7 µg/mL. The “Relative hydrophobicity in term of retention time (Rt) in HPLC-MS, Average” value in series [6] (100 ug/ml, listed as Wild-type hBD3, fragment m/z 860.2) was 24.28; in series [6] (100 ug/ml, listed as Wild-type hBD3, fragment m/z 1032.2), 24.29; in series [6] (500 ug/ml, listed as Wild-type hBD3, fragment m/z 860.2), 23.24; in series [6] (500 ug/ml, listed as Wild-type hBD3, fragment m/z 1032.2) it was 23.28.

With “RGRKC(Acm)C(Acm)RRKK [Peptide C2, 10-residue C-terminus fragment analog of hBD3]”, in series [7], the “Overall hydrophobicity in terms of ACN % of peak” value came out at 9.67% and the “Overall hydrophobicity in terms of Retention time (UV peak)” value (“Overall hydrophobicity … (UV peak)” below) was determined as 17.05 min.

Consider “RGRKFFRRKK (10 aa hBD3 derived peptide (C terminus), C replaced with F) [Peptide F2, 10-residue C-terminus fragment analog of hBD3]”, for which, in series [7], the “Overall hydrophobicity in terms of ACN % of peak” value is 14.78% and the “Overall hydrophobicity … (UV peak)” value is listed as 28.41 min.

As for “RGRKHHRRKK (10 aa hBD3 derived peptide (C terminus), C replaced with H) [Peptide H2, 10-residue C-terminus fragment analog of hBD3]”, in series [7], the “Overall hydrophobicity in terms of ACN % of peak” value is on record as 7.15% and the “Overall hydrophobicity … (UV peak)” value was 11.45 min.

Turning to “RGRKIIRRKK (10 aa hBD3 derived peptide (C terminus), C replaced with I) [Peptide I2, 10-residue C-terminus fragment analog of hBD3]”, in series [7], the “Overall hydrophobicity in terms of ACN % of peak” value amounted to 11.96% and the “Overall hydrophobicity … (UV peak)” value stood at 22.13 min.
